Results: patent US11266643B2, “Triaryl compounds for treatment of PD-L1 diseases” (CHEMOCENTRYX, INC., priority 2019, dated 2022)
pIC50: −log10 of the molar value.

Biological target: human PD-L1 (Homo sapiens (Human), UniProt Q9NZQ7)
Assay: Enzyme-Linked Immunosorbent Assay (ELISA), PD-1/PD-L1 binding
Outline: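 Plates coated with […] human PD-L1 overnight at 4° C, blocked, then 1:5 serial compound dilutions added with human PD-1 […] 0.31 μg/mL for 1 h at 37° C. Bound PD-1 detected with streptavidin-HRP and TMB (20 min, 37° C); absorbance read at 450 nm after H2SO4 stop.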

[1] = human PD-1/PD-L1 ELISA, plates coated with human PD-L1
[2] = plate-coated human PD-L1, biotinylated Human PD-1, absorbance at 450 nm
[3] = PD-1/PD-L1 ELISA, human PD-L1 coated plates, Table 1

human PD-L1, sequence (Q9NZQ7 19-239): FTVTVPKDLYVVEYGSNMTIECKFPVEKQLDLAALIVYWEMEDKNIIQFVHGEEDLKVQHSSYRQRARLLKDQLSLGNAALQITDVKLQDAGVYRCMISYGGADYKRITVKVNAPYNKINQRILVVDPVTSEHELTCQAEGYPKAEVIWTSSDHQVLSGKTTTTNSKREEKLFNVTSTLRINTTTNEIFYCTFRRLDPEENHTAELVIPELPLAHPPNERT

pIC50 [1]	pIC50 [3]	Structure (SMILES)	also measured
> 8.00	–	COc1cc(-c2cccc(-c3cccc(NC(=O)c4cncn(C)c4=O)c3C)c2C)cc(F)c1CNC1CCOCC1 [Example 1.087]	–
> 8.00	–	COc1cc(-c2cccc(-c3cccc(NC(=O)c4nn(C)c(=O)n(C)c4=O)c3C)c2C)cc(F)c1CNC(C)C [Example 1.065]	–
–	–	COc1cc(-c2cccc(-c3cccc(NC(=O)c4cn(C)c(=O)n(C)c4=O)c3Cl)c2Cl)cc(F)c1CN(C)[C@H]1CNC(=O)C1 [Example 2.055]	pIC50 [2]: 6.00 to 8.00
–	–	COc1cc(-c2cccc(-c3cccc(NC(=O)c4cn(C)c(=O)n(C)c4=O)c3C)c2Cl)cc(F)c1CN[C@H]1CCC[C@@H]1O [Example 2.060]	pIC50 [2]: > 8.00
–	> 8.00	COc1cc(-c2cccc(-c3cccc(NC(=O)c4ccc(OCC(N)=O)cn4)c3C)c2C)cc(F)c1CN [Example 1.296]	–
6.00 to 8.00	–	COc1cc(-c2cccc(-c3cccc(Nc4nccc5nccnc45)c3C)c2C)cc(F)c1CN[C@@H]1CCNC1=O [Example 1.130]	–
–	> 8.00	COc1cc(-c2cccc(-c3cccc(NC(=O)c4cncn(C)c4=O)c3C)c2C)cc(F)c1CNCC(C)(C)O [Example 1.205]	–
–	–	COc1cc(-c2cccc(-c3cccc(NC(=O)c4cn(C)c(=O)n(C)c4=O)c3C)c2Cl)cc(F)c1CN1CC2(CCNC2=O)C1 [Example 2.012]	pIC50 [2]: > 8.00
–	6.00 to 8.00	COc1cc(-c2cccc(-c3cccc(Nc4cccc5nccnc45)c3C)c2C)cc(F)c1CN1CC(C(=O)O)C1 [Example 1.248]	–
> 8.00	–	COc1cc(-c2cccc(-c3cccc(NC(=O)c4cn(C)c(=O)n(C)c4=O)c3C)c2F)cc(F)c1CN[C@@H]1CCC(=O)NC1 [Example 1.004]	–
–	> 8.00	COc1cc(-c2cccc(-c3cccc(Nc4nccc5c4C(=O)N(C)CC5)c3C)c2C)cc(F)c1CN1CC(C(=O)O)C1 [Example 1.265]	–
–	–	COc1cc(-c2cccc(-c3cccc(NC(=O)c4cn(C)c(=O)n(C)c4=O)c3F)c2Cl)cc(F)c1CN[C@@H]1CCOC[C@@H]1O [Example 2.106]	pIC50 [2]: > 8.00
–	> 8.00	COc1cc(-c2cccc(-c3cccc(NC(=O)c4ccccn4)c3C)c2C)cc(F)c1CN1CC(C(=O)O)C1 [Example 1.381]	–
> 8.00	–	COc1cc(-c2cccc(-c3cccc(NC(=O)c4cn(C)c(=O)n(C)c4=O)c3C)c2Cl)cc(F)c1CN[C@H]1CCOC[C@@H]1O (racemic) [Example 1.011]	–
–	5.00 to 6.00	COc1cc(-c2cccc(-c3cccc(Nc4nccc5ccccc45)c3C)c2C)cc(F)c1CN1CC(C(=O)O)C1 [Example 1.262]	–
–	> 8.00	COc1cc(-c2cccc(-c3cccc(NC(=O)c4c[nH]c(=O)n(C)c4=O)c3C)c2C)cc(F)c1CN[C@@H]1CCCC[C@@H]1O [Example 1.217]	–
6.00 to 8.00	–	COc1cc(-c2cccc(-c3cccc(NC(=O)c4c[nH]c(=O)n(C)c4=O)c3C)c2C)cc(F)c1CN[C@H]1CCNC1=O [Example 1.135]	–
> 8.00	–	COc1cc(-c2cccc(-c3cccc(NC(=O)c4cn(C)c(=O)n(C)c4=O)c3C)c2F)cc(F)c1CNCC(C)(C)C(N)=O [Example 1.033]	–
–	> 8.00	COc1cc(-c2cccc(-c3cccc(NC(=O)c4c[nH]c(=O)n(C)c4=O)c3C)c2C)cc(F)c1CN1CC(N)C1 [Example 1.227]	–
–	–	COc1cc(-c2cccc(-c3cccc(NC(=O)c4cn(C)c(=O)n(C)c4=O)c3Cl)c2Cl)cc(F)c1CN1CCC(C)(C(=O)O)CC1 [Example 2.005]	pIC50 [2]: > 8.00

pIC50 [1]	pIC50 [3]	Structure (SMILES)	also measured
–	> 8.00	COc1cc(-c2cccc(-c3cccc(NC(=O)c4cncn(C)c4=O)c3C)c2C)cc(F)c1CN[C@@H]1CNC(=O)C1 [Example 1.209]	–
> 8.00	–	COc1cc(-c2cccc(-c3cccc(NC(=O)c4cccn(C)c4=O)c3C)c2C)cc(F)c1CNC1CCOC1 (stereo not drawn) [Example 1.168]	–
> 8.00	–	COc1cc(-c2cccc(-c3cccc(NC(=O)c4c[nH]c(=O)n(C)c4=O)c3C)c2C)cc(F)c1CNCCN1CCCC1=O [Example 1.131]	–
–	–	COc1cc(-c2cccc(-c3cccc(NC(=O)c4c[nH]c(=O)n(C)c4=O)c3C)c2Cl)cc(F)c1CN[C@H]1CCOC[C@H]1O [Example 2.034]	pIC50 [2]: > 8.00
> 8.00	–	COc1cc(-c2cccc(-c3cccc(NC(=O)c4nn(C)c(=O)n(C)c4=O)c3C)c2C)cc(F)c1CN[C@@H]1CCOC[C@@H]1O [Example 1.076]	–
–	> 8.00	COc1cc(-c2cccc(-c3cccc(NC(=O)c4cccn(C)c4=O)c3C)c2C)cc(F)c1CNCC(=O)O [Example 1.290]	–
–	6.00 to 8.00	COc1cc(-c2cccc(-c3cccc(Nc4ccnc5cccnc45)c3C)c2C)cc(F)c1CN1CC(C(=O)O)C1 [Example 1.263]	–
6.00 to 8.00	–	COc1cc(-c2cccc(-c3cccc(NC(=O)c4cncn(C)c4=O)c3C)c2C)cc(F)c1CN(C)C[C@@H]1CCC(=O)N1C [Example 1.189]	–
–	–	COc1cc(-c2cccc(-c3cccc(NC(=O)c4cn(C)c(=O)n(C)c4=O)c3C)c2Cl)cc(F)c1CNC(C)(C)CO [Example 2.057]	pIC50 [2]: > 8.00
> 8.00	–	COc1cc(-c2cccc(-c3cccc(NC(=O)c4ccc(CNCCO)cn4)c3C)c2C)cc(F)c1CNCCCC(=O)O [Example 1.401]	–
–	> 8.00	COc1cc(-c2cccc(-c3cccc(NC(=O)c4ccc(CC(N)=O)cn4)c3C)c2C)cc(F)c1CN [Example 1.310]	–
> 8.00	–	COc1cc(-c2cccc(-c3cccc(NC(=O)c4nn(C)c(=O)n(C)c4=O)c3C)c2C)cc(F)c1CNCCCC(N)=O [Example 1.062]	–
> 8.00	–	COc1cc(-c2cccc(-c3cccc(NC(=O)c4cncn(C)c4=O)c3C)c2C)cc(F)c1CNCc1c[nH]c(=O)[nH]c1=O [Example 1.113]	–
–	–	COc1cc(-c2cccc(-c3cccc(NC(=O)c4cn(C)c(=O)n(C)c4=O)c3C)c2Cl)cc(F)c1CNC1(C)CCOCC1 [Example 2.050]	pIC50 [2]: > 8.00
–	–	COc1cc(-c2cccc(-c3cccc(NC(=O)c4cn(C)c(=O)n(C)c4=O)c3Cl)c2C)cc(F)c1CN[C@H]1CCOC[C@H]1O [Example 2.103]	pIC50 [2]: > 8.00
–	–	COc1cc(-c2cccc(-c3cccc(NC(=O)c4cn(C)c(=O)n(C)c4=O)c3C)c2Cl)cc(F)c1CN[C@H]1CCOC[C@H]1OC [Example 2.024]	pIC50 [2]: > 8.00
–	–	COc1cc(-c2cccc(-c3cccc(NC(=O)c4cn(C)c(=O)n(C)c4=O)c3C)c2Cl)cc(F)c1CN[C@@H]1CCC[C@@H]1O [Example 2.051]	pIC50 [2]: > 8.00
6.00 to 8.00	–	COc1cc(-c2cccc(-c3cccc(NC(=O)c4cncn(C)c4=O)c3C)c2C)cc(F)c1CN(C)CC(C)(C)O [Example 1.166]	–
–	–	COc1cc(-c2cccc(-c3cccc(NC(=O)c4cn(C)c(=O)n(C)c4=O)c3Cl)c2C)cc(F)c1CN(C)C[C@@H]1CCC(=O)N1 [Example 2.100]	pIC50 [2]: > 8.00
–	> 8.00	COc1cc(-c2cccc(-c3cccc(NC(=O)c4cncn(C)c4=O)c3C)c2C)cc(F)c1CN[C@H]1CCC(=O)NC1 [Example 1.255]	–

pIC50 [1]	pIC50 [3]	Structure (SMILES)	also measured
6.00 to 8.00	–	COc1cc(-c2cccc(-c3cccc(Nc4nccc5nccnc45)c3C)c2C)cc(F)c1CNCc1c[nH]c(=O)[nH]c1=O [Example 1.101]	–
> 8.00	–	COc1cc(-c2cccc(-c3cccc(NC(=O)c4cncn(C)c4=O)c3C)c2C)cc(F)c1CNC[C@H]1CCC(=O)N1 [Example 1.186]	–
–	> 8.00	COc1cc(-c2cccc(-c3cccc(NC(=O)c4ccccn4)c3C)c2C)cc(F)c1CNCCO [Example 1.396]	–
–	–	COc1cc(-c2cccc(-c3cccc(NC(=O)c4cn(C)c(=O)n(C)c4=O)c3C)c2Cl)cc(F)c1CNC(C)(C)C(N)=O [Example 2.085]	pIC50 [2]: 6.00 to 8.00
–	–	COc1cc(-c2cccc(-c3cccc(NC(=O)c4cn(C)c(=O)n(C)c4=O)c3C)c2Cl)cc(F)c1CN1CCC[C@@H](C(=O)O)C1 [Example 2.015]	pIC50 [2]: > 8.00
–	> 8.00	COc1cc(-c2cccc(-c3cccc(NC(=O)c4c[nH]c(=O)n(C)c4=O)c3C)c2C)cc(F)c1CNCC(C)(C)O [Example 1.232]	–
–	6.00 to 8.00	COc1cc(-c2cccc(-c3cccc(Nc4cc5c(cn4)C(=O)NCC5)c3C)c2C)cc(F)c1CN1CC(C(=O)O)C1 [Example 1.264]	–
–	–	COc1cc(-c2cccc(-c3cccc(NC(=O)c4cn(C)c(=O)n(C)c4=O)c3C)c2Cl)cc(F)c1CN[C@@H]1COC[C@@H]1O [Example 2.094]	pIC50 [2]: > 8.00
> 8.00	–	COc1cc(-c2cccc(-c3cccc(Nc4cncc5nccnc45)c3C)c2C)cc(F)c1CN[C@H]1CCC(=O)NC1 [Example 1.042]	–
> 8.00	–	COc1cc(-c2cccc(-c3cccc(Nc4cncc5nccnc45)c3C)c2C)cc(F)c1CN[C@@H]1CCOC[C@@H]1O [Example 1.041]	–
–	6.00 to 8.00	COc1cc(-c2cccc(-c3cccc(NC(=O)c4c[nH]c(=O)n(C)c4=O)c3C)c2C)cc(F)c1CN(C)CC(N)=O [Example 1.251]	–
–	–	COc1cc(-c2cccc(-c3cccc(NC(=O)c4cn(C)c(=O)n(C)c4=O)c3C)c2Cl)cc(F)c1CN[C@@H]1CCOC1 [Example 2.098]	pIC50 [2]: > 8.00
> 8.00	–	COc1cc(-c2cccc(-c3cccc(NC(=O)c4cn(C)c(=O)n(C)c4=O)c3C)c2C)cc(F)c1CN[C@@H]1CCC[C@@H]1O [Example 1.178]	–
–	–	COc1cc(-c2cccc(-c3cccc(NC(=O)c4cn(C)c(=O)n(C)c4=O)c3Cl)c2Cl)cc(F)c1CN1CC[C@@H](C(=O)O)C1 [Example 2.010]	pIC50 [2]: > 8.00
> 8.00	–	COc1cc(-c2cccc(-c3cccc(NC(=O)c4cn(C)c(=O)n(C)c4=O)c3C)c2Cl)cc(F)c1CN[C@@H]1CCOC[C@@H]1O [Example 1.017]	–
> 8.00	–	COc1cc(-c2cccc(-c3cccc(NC(=O)c4cncn(C)c4=O)c3C)c2C)cc(F)c1CN[C@H]1CCC[C@@H]1O [Example 1.172]	–
–	> 8.00	COc1cc(-c2cccc(-c3cccc(NC(=O)c4cncn(C)c4=O)c3C)c2C)cc(F)c1CNCCO [Example 1.221]	–
–	6.00 to 8.00	COc1cc(-c2cccc(-c3cccc(NC(=O)c4ccccn4)c3C)c2C)cc(F)c1CN1CCC(C(=O)O)CC1 [Example 1.358]	–
6.00 to 8.00	–	COc1cc(-c2cccc(-c3cccc(NC(=O)c4c[nH]c(=O)n(C)c4=O)c3C)c2C)cc(F)c1CNCc1noc(=O)[nH]1 [Example 1.120]	–
> 8.00	–	COc1cc(-c2cccc(-c3cccc(NC(=O)c4cncn(C)c4=O)c3C)c2C)cc(F)c1CNCC1(O)CC1 [Example 1.140]	–
